Measured values as given in ChEMBL document CHEMBL1201862, “PubChem BioAssay data set” (2004).
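Compound exposure: 48 hours, 5 concentrations, 96-well plates. At the GI50, growth is halved.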 The source made the active and inactive calls. No stated cut-off is given here; in the data, active = GI50 up to about 1.1 µM and inactive = higher.

Key:
Assay in all cases: inhibition of tumour cell growth, NCI panel, 48 h
A549 = tested on: A549
DMS-114 = tested on: DMS-114
DMS-273 = tested on: DMS-273
HOP-18 = tested on: HOP-18
HOP-62 = tested on: HOP-62
HT-29 = tested on: HT-29
K562 = tested on: K562
MOLT-4 = tested on: MOLT-4
OVCAR-5 = tested on: OVCAR-5
OVCAR-8 = tested on: OVCAR-8
SF-539 = tested on: SF-539
SK-MEL-2 = tested on: SK-MEL-2
SK-MEL-5 = tested on: SK-MEL-5
U-251 = tested on: U-251
ACHN = tested on: ACHN
Hs-578T = tested on: Hs-578T
M14 = tested on: M14
MDA-MB-231 = tested on: MDA-MB-231
MDA-N = tested on: MDA-N
TK-10 = tested on: TK-10

Compound	GI50 (A549)	GI50 (DMS-114)	GI50 (DMS-273)	GI50 (HOP-18)	GI50 (HOP-62)	GI50 (HT-29)	GI50 (K562)	GI50 (MOLT-4)	GI50 (OVCAR-5)	GI50 (OVCAR-8)	GI50 (SF-539)	GI50 (SK-MEL-2)	GI50 (SK-MEL-5)	GI50 (U-251)	GI50 (ACHN)	GI50 (Hs-578T)	GI50 (M14)	GI50 (MDA-MB-231)	GI50 (MDA-N)	GI50 (TK-10)
CCCN1C(=O)/C(=C(/O)C(=O)OCC)C(c2ccc(OC)c(OC)c2)C1=O (configuration not stated)	> 100 µM (inactive)	> 100 µM (inactive)	> 100 µM (inactive)	> 100 µM (inactive)	> 100 µM (inactive)	> 100 µM (inactive)	> 100 µM (inactive)	> 100 µM (inactive)	> 100 µM (inactive)	> 100 µM (inactive)	> 100 µM (inactive)	> 100 µM (inactive)	> 100 µM (inactive)	> 100 µM (inactive)						
CCOC(=O)c1ccc(N(CCOS(C)(=O)=O)CCOS(C)(=O)=O)cc1	53 µM (inactive)					51.6 µM (inactive)	24.3 µM (inactive)	17.8 µM (inactive)	34.9 µM (inactive)	47 µM (inactive)	25.1 µM (inactive)	55.2 µM (inactive)	42.2 µM (inactive)	35.9 µM (inactive)	26 µM (inactive)	29.3 µM (inactive)	53.1 µM (inactive)	91.2 µM (inactive)	45.6 µM (inactive)	83.4 µM (inactive)
COc1ccc(/C=c2\sc3n(c2=O)CCN=3)cc1	> 100 µM (inactive)			88.3 µM (inactive)	> 100 µM (inactive)	> 100 µM (inactive)	43.7 µM (inactive)	68.5 µM (inactive)	> 100 µM (inactive)	> 100 µM (inactive)	> 100 µM (inactive)	> 100 µM (inactive)	80 µM (inactive)	> 100 µM (inactive)	> 100 µM (inactive)		> 100 µM (inactive)			> 100 µM (inactive)
C[C@H]1O[C@@H](O[C@H]2[C@@H](O)C[C@H](O[C@H]3[C@@H](O)C[C@H](O[C@H]4CC[C@@]5(C)[C@H](CC[C@@H]6[C@@H]5CC[C@]5(C)[C@@H](C7=CC(=O)OC7)CC[C@]65O)C4)O[C@@H]3C)O[C@@H]2C)C[C@H](O)[C@@H]1O [DIGITOXIN]	< 0.0157 µM (active)				< 0.0199 µM (active)	0.0338 µM (active)	< 0.0246 µM (active)		0.0543 µM (active)		< 0.0123 µM (active)	0.0641 µM (active)	< 0.0212 µM (active)		< 0.015 µM (active)	< 0.0378 µM (active)		0.129 µM (active)	0.0256 µM (active)	0.0252 µM (active)
NCCCN(CCCN)CCN(CCN(CCCN)CCCN)CCN(CCCN)CCCN	> 100 µM (inactive)				> 100 µM (inactive)	> 100 µM (inactive)	> 100 µM (inactive)	> 10 µM (inactive)	> 100 µM (inactive)	44.6 µM (inactive)		> 100 µM (inactive)	> 100 µM (inactive)	66.1 µM (inactive)	> 100 µM (inactive)	23.5 µM (inactive)	> 100 µM (inactive)	> 100 µM (inactive)	> 100 µM (inactive)	> 100 µM (inactive)
CCCCN(C)/N=N/c1[nH]cnc1C(N)=O	> 100 µM (inactive)	> 100 µM (inactive)	58.7 µM (inactive)	> 100 µM (inactive)		> 100 µM (inactive)	> 80.7 µM (inactive)	41.2 µM (inactive)	> 85.1 µM (inactive)	78.2 µM (inactive)	> 100 µM (inactive)	44.6 µM (inactive)	> 100 µM (inactive)	> 100 µM (inactive)						
COc1ccc(C2COc3cc(OC(C)=O)c(OC(C)=O)cc3C2)cc1 (configuration not stated)	11.9 µM (inactive)	5.65 µM (inactive)	17.9 µM (inactive)	2.78 µM (inactive)	31.6 µM (inactive)	28.2 µM (inactive)	16.3 µM (inactive)	5.66 µM (inactive)	27.1 µM (inactive)	18.8 µM (inactive)	19.9 µM (inactive)	31.7 µM (inactive)	25.9 µM (inactive)	6.49 µM (inactive)						
c1ccc(-n2cnnc2-c2nsc3ccccc23)cc1	> 100 µM (inactive)		> 100 µM (inactive)	9.71 µM (inactive)	> 100 µM (inactive)	> 100 µM (inactive)	> 100 µM (inactive)	> 100 µM (inactive)	> 100 µM (inactive)	> 100 µM (inactive)	> 100 µM (inactive)	> 100 µM (inactive)	> 100 µM (inactive)	> 100 µM (inactive)	67.3 µM (inactive)		> 100 µM (inactive)			> 100 µM (inactive)
O=c1ccn([C@@H]2C=C(CO)[C@@H](O)[C@H]2O)c(=O)[nH]1	> 625 µM (inactive)		> 625 µM (inactive)	> 625 µM (inactive)	> 625 µM (inactive)	> 625 µM (inactive)				> 625 µM (inactive)	> 625 µM (inactive)	> 625 µM (inactive)	> 625 µM (inactive)	> 625 µM (inactive)						
CCOC(=O)CN(CC)C(=O)NC12CC3CC(CC(C3)C1)C2	222 µM (inactive)	134 µM (inactive)	233 µM (inactive)	148 µM (inactive)	188 µM (inactive)	166 µM (inactive)	180 µM (inactive)	133 µM (inactive)	225 µM (inactive)	292 µM (inactive)	244 µM (inactive)	131 µM (inactive)	109 µM (inactive)	246 µM (inactive)						
COc1ccccc1OCC(COC(=O)Nc1ccccc1)OC(=O)Nc1ccccc1 (configuration not stated)	50.6 µM (inactive)	47.1 µM (inactive)	54.6 µM (inactive)	59.3 µM (inactive)	56.6 µM (inactive)	59.8 µM (inactive)	> 100 µM (inactive)		> 100 µM (inactive)	37.4 µM (inactive)	17.2 µM (inactive)	23.1 µM (inactive)	79.3 µM (inactive)	41.4 µM (inactive)	> 100 µM (inactive)		91.8 µM (inactive)			> 100 µM (inactive)
